The record followed here is patent publication US10597382B2, “Tetrazole containing apoptosis signal-regulating kinase 1 inhibitors and methods of use thereof” (ENANTA PHARMACEUTICALS, INC., priority 2017, dated 2020).

Molecules are shown by their SMILES. Where only a bound is given, the exact number is not on record here.

One may read the IC50 as the concentration needed to halve the response being measured.

The target in the test is ASK1 kinase (Homo sapiens (Human), UniProt Q99683). Put plainly: HTRF KinEASE assay of ASK1 kinase activity inhibition. The conditions noted are these: HTRF KinEASE-STK TR-FRET; 5 nM ASK1, 1 uM STK3 peptide substrate, 100 uM ATP, 3 hours. The format is biochemical. How it is done: • The ability (IC50) of compounds to inhibit ASK1 kinase activity was determined by HTRF® KinEASE™ Assay System
Chain of ASK1 kinase (Q99683 whole entry): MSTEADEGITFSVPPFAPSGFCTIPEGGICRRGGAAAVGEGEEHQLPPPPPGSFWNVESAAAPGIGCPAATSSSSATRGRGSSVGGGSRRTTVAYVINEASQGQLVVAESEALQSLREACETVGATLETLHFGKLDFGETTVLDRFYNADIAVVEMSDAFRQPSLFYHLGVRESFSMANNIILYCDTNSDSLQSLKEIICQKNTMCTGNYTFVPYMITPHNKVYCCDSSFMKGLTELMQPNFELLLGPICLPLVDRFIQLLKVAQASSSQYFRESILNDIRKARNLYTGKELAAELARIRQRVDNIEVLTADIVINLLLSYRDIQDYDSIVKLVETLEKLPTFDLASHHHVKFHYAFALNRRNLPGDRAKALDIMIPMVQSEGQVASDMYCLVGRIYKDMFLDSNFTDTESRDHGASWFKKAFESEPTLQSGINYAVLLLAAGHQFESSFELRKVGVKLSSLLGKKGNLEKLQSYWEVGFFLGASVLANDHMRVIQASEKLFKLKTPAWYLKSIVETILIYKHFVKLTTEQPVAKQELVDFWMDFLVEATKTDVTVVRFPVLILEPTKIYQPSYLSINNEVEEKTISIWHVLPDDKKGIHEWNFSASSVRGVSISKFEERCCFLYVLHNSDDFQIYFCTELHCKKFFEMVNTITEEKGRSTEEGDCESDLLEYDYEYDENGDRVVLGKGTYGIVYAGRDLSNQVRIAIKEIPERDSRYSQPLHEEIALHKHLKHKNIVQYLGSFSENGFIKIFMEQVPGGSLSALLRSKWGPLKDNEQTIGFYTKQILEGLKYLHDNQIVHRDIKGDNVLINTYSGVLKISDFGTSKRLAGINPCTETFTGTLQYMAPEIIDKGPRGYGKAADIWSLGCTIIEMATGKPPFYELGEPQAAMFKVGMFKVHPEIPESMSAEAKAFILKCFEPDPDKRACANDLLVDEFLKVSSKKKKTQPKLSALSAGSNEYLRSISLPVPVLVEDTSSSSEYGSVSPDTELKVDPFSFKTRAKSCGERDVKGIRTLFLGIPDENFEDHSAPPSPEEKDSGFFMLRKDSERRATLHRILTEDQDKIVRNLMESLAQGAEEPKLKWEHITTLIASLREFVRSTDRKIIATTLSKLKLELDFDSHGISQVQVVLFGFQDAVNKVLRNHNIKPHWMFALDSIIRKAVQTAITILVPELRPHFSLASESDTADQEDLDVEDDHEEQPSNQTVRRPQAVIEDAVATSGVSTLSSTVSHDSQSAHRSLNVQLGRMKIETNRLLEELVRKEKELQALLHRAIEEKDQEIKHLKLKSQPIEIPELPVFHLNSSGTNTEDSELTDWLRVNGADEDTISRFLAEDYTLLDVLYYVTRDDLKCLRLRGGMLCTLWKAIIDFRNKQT
ASK1 kinase was from Thermofisher (Catalogue # PV4011), ATP was from Sigma (Catalogue # A7699), HTRF® KinEASE™ Assay System was obtained from Cisbio (Bedford, Mass.). ½ Area plate was from Perkin Elmer (Catalogue #6005560). HTRF® KinEASE™-STK is a generic method for measuring serine/threonine kinase activities using time-resolved fluorescence resonance energy transfer (TR-FRET) immunoassay. The IC50 value for each compound was determined in the presence of compound (various concentration from 0 to 10 uM) and a fixed amount of ATP, peptide substrates. Test compound, 1 uM STK3 peptide substrate, 5 nM of ASK1 kinase are incubated with kinase reaction buffer, containing 50 mM HEPES pH 7.5, 0.01% BRIJ-35, 10 mM MgCl2, and 1 mM EGTA for 30 minutes, then 100 uM ATP is added to start kinase reaction and incubated for 3 hours. The STK3-antibody labeled with Eu^3+-Cryptate and 125 nM streptavidin-XL665 are mixed in a single addition with stop reagents provided by the Cisbio kit used to stop the kinase reaction. Fluorescence is detected using Envision Multilabeled 2014 reader from PerkinElmer. The Fluorescence is measured at 615 nm (Cryptate) and 665 nm (XL665) and a ratio of 665 nm/615 nm is calculated for each well. The resulting TR-FRET is proportional to the phosphorylation level. Staurosporine was used as the positive control. IC50 was determined by Xlfit 5.3.
By using above method, the inhibition of ASK1 was tested for the compound of formula (I). IC50 ranges are as follows: A<1 nM; 1 nM<[…]B<10 nM; 10 nM<C<100 nM; 100 nM<D<1 μM; E>1 μM.
(TR-FRET usually uses a lanthanide donor and a delayed reading to cut background.)
For the molecule `Cc1cc2c(cc1OC(C)C)C(=O)N(c1cccc(-c3nnnn3[C@H](C)CO)n1)C2` [Example 14], the IC50 was in the range of 1 to 10 nM.

In the case of `CCN1CCN(c2ccc3c(c2)C(=O)N(c2cccc(-n4nnnc4C(C)C)n2)C3)CC1=O` [Example 10], the IC50 lay within 10 to 100 nM.

In the case of `CC(=O)OC[C@@H](C)n1nnnc1-c1cccc(N2Cc3ccc(OC(C)C)cc3C2=O)n1` [Example 5, I-2-(5-(6-(6-isopropoxy-1-oxoisoindolin-2-yl)pyridine-2-yl)-1H-tetrazol-1-yl)propyl acetate], the IC50 was > 1000 nM.

`CC(C)c1nnnn1-c1cccc(N2Cc3ccc(-c4cccnc4)cc3C2=O)n1` [Example 9] yielded an IC50 of 10 to 100 nM.

`CC(C)c1nnnn1-c1cccc(N2Cc3ccc(-n4cnc(C5CC5)c4)cc3C2=O)n1` [Example 1, 6-(4-cyclopropyl-1H-imidazol-1-yl)-2-(6-(5-isopropyl-1H-tetrazol-1-yl)pyridine-2-yl)isoindolin-1-one] returned an IC50 of 1 to 10 nM.

Regarding `CC(C)n1nnnc1-c1cccc(N2Cc3ccc(-c4cccnc4)cc3C2=O)n1` [Example 13], the half-inhibitory concentration (IC50) lay within 1 to 10 nM.

The molecule `CC(=O)OC[C@@H](C)n1nnnc1-c1cccc(N2Cc3ccc(-n4cnc(C5CC5)c4)cc3C2=O)n1` [Example 3, I-2-(5-(6-(6-(4-cyclopropyl-1H-imidazol-1-yl)-1-oxoisoindolin-2-yl)pyridine-2-yl)-1H-tetrazol-1-yl)propyl acetate] registered an IC50 of 100 to 1000 nM.

`CC(C)Oc1ccc2c(c1)C(=O)N(c1cccc(-c3nnnn3[C@H](C)CO)n1)C2` [Example 6, I-2-(6-(1-(1-hydroxypropan-2-yl)-1H-tetrazol-5-yl)pyridine-2-yl)-6-isopropoxyisoindolin-1-one]: the IC50 lay in the range of 1 to 10 nM.

In turn, `Cc1ccncc1-c1ccc2c(c1)C(=O)N(c1cccc(-n3nnnc3C(C)C)n1)C2` [Example 12] came in with an IC50 of 100 to 1000 nM.

In the case of `C[C@H](CO)n1nnnc1-c1cccc(N2Cc3ccc(-n4cnc(C5CC5)c4)cc3C2=O)n1` [Example 4, I-6-(4-cyclopropyl-1H-imidazol-1-yl)-2-(6-(1-(1-hydroxypropan-2-yl)-1H-tetrazol-5-yl)pyridine-2-yl)isoindolin-1-one], the IC50 lay within 10 to 100 nM.

The molecule `CC(C)n1nnnc1-c1cccc(N2Cc3ccc(-n4cnc(C5CC5)c4)cc3C2=O)n1` [Example 2, 6-(4-cyclopropyl-1H-imidazol-1-yl)-2-(6-(1-isopropyl-1H-tetrazol-5-yl)pyridine-2-yl)isoindolin-1-one] came in with an IC50 of 10 to 100 nM.

`CC(C)c1nnnn1-c1cccc(N2Cc3ccc(N4CCOCC4)cc3C2=O)n1` [Example 8] returned an IC50 of 100 to 1000 nM.

As to `CC(C)n1nnnc1-c1cccc(N2Cc3ccccc3C2=O)n1` [Example 7], the IC50 lay within 10 to 100 nM.

`Cc1ncccc1-c1ccc2c(c1)C(=O)N(c1cccc(-n3nnnc3C(C)C)n1)C2` [Example 11] showed an IC50 of 100 to 1000 nM.

`CC(C)n1nnnc1-c1cccc(N2Cc3ccc(-c4ccc(C5CC5)nc4)cc3C2=O)n1` [Example 16] displayed an IC50 of 10 to 100 nM.

Molecule `CC(C)n1nnnc1-c1cccc(N2Cc3ccc(-c4cncc(C5CC5)c4)cc3C2=O)n1` [Example 15] registered an IC50 of 10 to 100 nM.
